System: 388556-164-R-J1-PDC complex spheroid viability
Experiment: Anticancer human tumor 388556-164-R-J1-PDC patient-derived colon adenocarcinoma cell line growth inhibition [RAS]
Conditions: for viability, T/C: stronger effect = lower value
Summary of the method: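 Multi-cell-type spheroids: tumor cells plus HUVEC endothelial cells and mesenchymal stem cells. RAS-pathway inhibitors were combined with targeted agents, each dosed in half-log steps down from clinical Cmax, or from 10 microM when Cmax was unknown.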
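Note: spheroids exposed to compound for 7 days before readout.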
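Throughout, for viability, T/C: 100% = DMSO vehicle control luminescence.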

Which results are given for CC(=O)OC12COC1CC(O)C1(C)C(=O)C(O)C3=C(C)C(OC(=O)C(O)C(NC(=O)OC(C)(C)C)c4ccccc4)CC(O)(C(OC(=O)c4ccccc4)C21)C3(C)C (stereo unspecified) + C#Cc1c(F)ccc2cc(O)cc(-c3ncc4c(N5CC6CCC(C5)N6)nc(OCC56CCCN5CC(F)C6)nc4c3F)c12?
IC50 (curve of first compound, second compound 0.0316 µM): > 10000 nM; IC50 (curve of first compound, second compound 0.1 µM): > 10000 nM; IC50 (curve of first compound, second compound 0.316 µM): > 10000 nM; IC50 (curve of first compound, second compound 1 µM): > 10000 nM; IC50 (curve of first compound, second compound 3.16 µM): 6130 nM; IC50 (curve of first compound, second compound 10 µM): 811 nM; viability, T/C (second compound 0.0316 µM, first compound 0.0316 µM): 80.7%; viability, T/C (second compound 0.0316 µM, first compound 0.1 µM): 80.8%; viability, T/C (second compound 0.0316 µM, first compound 0.316 µM): 76.1%; viability, T/C (second compound 0.0316 µM, first compound 1 µM): 76.1%; viability, T/C (second compound 0.0316 µM, first compound 3.16 µM): 74.5%; viability, T/C (second compound 0.0316 µM, first compound 10 µM): 75.1%; viability, T/C (second compound 0.1 µM, first compound 0.0316 µM): 87.6%; viability, T/C (second compound 0.1 µM, first compound 0.1 µM): 80.8%; viability, T/C (second compound 0.1 µM, first compound 0.316 µM): 71.5%; viability, T/C (second compound 0.1 µM, first compound 1 µM): 75.2%; viability, T/C (second compound 0.1 µM, first compound 3.16 µM): 78.9%; viability, T/C (second compound 0.1 µM, first compound 10 µM): 75.4%; viability, T/C (second compound 0.316 µM, first compound 0.0316 µM): 82.5%; viability, T/C (second compound 0.316 µM, first compound 0.1 µM): 73.7%; viability, T/C (second compound 0.316 µM, first compound 0.316 µM): 67.4%; viability, T/C (second compound 0.316 µM, first compound 1 µM): 69.7%; viability, T/C (second compound 0.316 µM, first compound 3.16 µM): 77.1%; viability, T/C (second compound 0.316 µM, first compound 10 µM): 59%; viability, T/C (second compound 1 µM, first compound 0.0316 µM): 78.5%; viability, T/C (second compound 1 µM, first compound 0.1 µM): 74.4%; viability, T/C (second compound 1 µM, first compound 0.316 µM): 59.6%; viability, T/C (second compound 1 µM, first compound 1 µM): 67.4%; viability, T/C (second compound 1 µM, first compound 3.16 µM): 69%; viability, T/C (second compound 1 µM, first compound 10 µM): 49.8%; viability, T/C (second compound 3.16 µM, first compound 0.0316 µM): 72.8%; viability, T/C (second compound 3.16 µM, first compound 0.1 µM): 58.2%; viability, T/C (second compound 3.16 µM, first compound 0.316 µM): 59%; viability, T/C (second compound 3.16 µM, first compound 1 µM): 65.8%; viability, T/C (second compound 3.16 µM, first compound 3.16 µM): 63.3%; viability, T/C (second compound 3.16 µM, first compound 10 µM): 40.2%; viability, T/C (second compound 10 µM, first compound 0.0316 µM): 56.6%; viability, T/C (second compound 10 µM, first compound 0.1 µM): 48.2%; viability, T/C (second compound 10 µM, first compound 0.316 µM): 52.4%; viability, T/C (second compound 10 µM, first compound 1 µM): 54.7%; viability, T/C (second compound 10 µM, first compound 3.16 µM): 40.1%; viability, T/C (second compound 10 µM, first compound 10 µM): 35.5%

With CCn1c(-c2cc(N3CCN(C)CC3)cnc2C(C)OC)c2c3cc(ccc31)-c1csc(n1)CC(NC(=O)C1CC1C)C(=O)N1CCCC(N1)C(=O)OCC(C)(C)C2 (stereo unspecified) as the compound, how does the viability, T/C (compound 0.000949 µM) read?
The viability, T/C was 99% [middle of 8 runs].

What about the viability, T/C (compound 0.003 µM) of the same compound?
The viability, T/C was 92% [middle of 8 runs].

And the viability, T/C (compound 0.00949 µM)?
Its viability, T/C is 78.5% [middle of 8 runs].

What about the viability, T/C (compound 0.03 µM) of the same compound?
Its viability, T/C is 62.5% [middle of 8 runs].

What about the viability, T/C (compound 0.0949 µM) of the same compound?
The viability, T/C was 45.2% [middle of 8 runs].

And the viability, T/C (compound 0.3 µM)?
Its viability, T/C is 34.4% [middle of 8 runs].

What about the IC50 (compound alone, run of 08/26/2024) of the same compound?
The IC50 was 68.6 nM [middle of 8 runs].

How did the IC50 (curve of first compound, second compound 0.000949 µM) turn out when C=CC(=O)N1CCN(c2nc(OCC3CCCN3C)nc3c(F)c(-c4nc(N)cc(C)c4C(F)(F)F)c(Cl)cc23)C(C)C1 (stereo unspecified) + CCn1c(-c2cc(N3CCN(C)CC3)cnc2C(C)OC)c2c3cc(ccc31)-c1csc(n1)CC(NC(=O)C1CC1C)C(=O)N1CCCC(N1)C(=O)OCC(C)(C)C2 was run?
Its IC50 is > 1000 nM.

What about the IC50 (curve of first compound, second compound 0.003 µM) of the same compound?
Its IC50 is > 1000 nM.

And the IC50 (curve of first compound, second compound 0.00949 µM)?
Its IC50 is > 1000 nM.

What about the IC50 (curve of first compound, second compound 0.03 µM) of the same compound?
The IC50 was > 1000 nM.

What about the IC50 (curve of first compound, second compound 0.0949 µM) of the same compound?
Its IC50 is < 3.16 nM.

What about the IC50 (curve of first compound, second compound 0.3 µM) of the same compound?
Its IC50 is < 3.16 nM.

What about the viability, T/C (second compound 0.000949 µM, first compound 0.00316 µM) of the same compound?
Its viability, T/C is 90.9%.

And the viability, T/C (second compound 0.000949 µM, first compound 0.01 µM)?
The viability, T/C was 97.7%.

What about the viability, T/C (second compound 0.000949 µM, first compound 0.0316 µM) of the same compound?
Its viability, T/C is 86.2%.

And the viability, T/C (second compound 0.000949 µM, first compound 0.1 µM)?
The viability, T/C was 91.5%.

And the viability, T/C (second compound 0.000949 µM, first compound 0.316 µM)?
The viability, T/C was 92.1%.

And the viability, T/C (second compound 0.000949 µM, first compound 1 µM)?
Its viability, T/C is 93.5%.

What about the viability, T/C (second compound 0.003 µM, first compound 0.00316 µM) of the same compound?
The viability, T/C was 94.8%.

What about the viability, T/C (second compound 0.003 µM, first compound 0.01 µM) of the same compound?
The viability, T/C was 83.5%.

What about the viability, T/C (second compound 0.003 µM, first compound 0.0316 µM) of the same compound?
The viability, T/C was 92.7%.

What about the viability, T/C (second compound 0.003 µM, first compound 0.1 µM) of the same compound?
Its viability, T/C is 86.9%.

And the viability, T/C (second compound 0.003 µM, first compound 0.316 µM)?
Its viability, T/C is 86.5%.

What about the viability, T/C (second compound 0.003 µM, first compound 1 µM) of the same compound?
The viability, T/C was 84.2%.

What about the viability, T/C (second compound 0.00949 µM, first compound 0.00316 µM) of the same compound?
The viability, T/C was 87%.

What about the viability, T/C (second compound 0.00949 µM, first compound 0.01 µM) of the same compound?
The viability, T/C was 79.5%.

And the viability, T/C (second compound 0.00949 µM, first compound 0.0316 µM)?
Its viability, T/C is 78.8%.

What about the viability, T/C (second compound 0.00949 µM, first compound 0.1 µM) of the same compound?
Its viability, T/C is 70.4%.

And the viability, T/C (second compound 0.00949 µM, first compound 0.316 µM)?
Its viability, T/C is 85%.

What about the viability, T/C (second compound 0.00949 µM, first compound 1 µM) of the same compound?
The viability, T/C was 65.9%.

And the viability, T/C (second compound 0.03 µM, first compound 0.00316 µM)?
The viability, T/C was 63.6%.

What about the viability, T/C (second compound 0.03 µM, first compound 0.01 µM) of the same compound?
The viability, T/C was 68.7%.

And the viability, T/C (second compound 0.03 µM, first compound 0.0316 µM)?
The viability, T/C was 62.2%.

And the viability, T/C (second compound 0.03 µM, first compound 0.1 µM)?
Its viability, T/C is 62.3%.

And the viability, T/C (second compound 0.03 µM, first compound 0.316 µM)?
Its viability, T/C is 63.3%.

What about the viability, T/C (second compound 0.03 µM, first compound 1 µM) of the same compound?
The viability, T/C was 62%.

And the viability, T/C (second compound 0.0949 µM, first compound 0.00316 µM)?
Its viability, T/C is 43.2%.

And the viability, T/C (second compound 0.0949 µM, first compound 0.01 µM)?
Its viability, T/C is 39.9%.

What about the viability, T/C (second compound 0.0949 µM, first compound 0.0316 µM) of the same compound?
The viability, T/C was 43.1%.

And the viability, T/C (second compound 0.0949 µM, first compound 0.1 µM)?
The viability, T/C was 49.5%.

And the viability, T/C (second compound 0.0949 µM, first compound 0.316 µM)?
The viability, T/C was 52.8%.

What about the viability, T/C (second compound 0.0949 µM, first compound 1 µM) of the same compound?
The viability, T/C was 45.6%.

What about the viability, T/C (second compound 0.3 µM, first compound 0.00316 µM) of the same compound?
Its viability, T/C is 33.2%.

What about the viability, T/C (second compound 0.3 µM, first compound 0.01 µM) of the same compound?
Its viability, T/C is 31%.

And the viability, T/C (second compound 0.3 µM, first compound 0.0316 µM)?
Its viability, T/C is 30.9%.

And the viability, T/C (second compound 0.3 µM, first compound 0.1 µM)?
The viability, T/C was 34.9%.

And the viability, T/C (second compound 0.3 µM, first compound 0.316 µM)?
The viability, T/C was 38%.

What about the viability, T/C (second compound 0.3 µM, first compound 1 µM) of the same compound?
Its viability, T/C is 32%.

Source: PubChem BioAssay AID2060907 (Molecular Pharmacology Branch, DTP, NCI, 2025)
